In patent US20220096717A1, “AXITINIB-LOADED NANOFIBER MEMBRANE, PREPARATION METHOD FOR THE SAME, AND ITS USE OF ANTI-ADHESION AFTER A SURGERY” (SHANGHAI CHILDREN'S MEDICAL CENTER, SHANGHAI JIAO TONG …, priority 2020, published 2022):

Test: Solubility of Axitinib (FIG. 1)
Type: physicochemical
Conditions: FIG. 1A
Procedure: FIG. 1: pictures showing solubility of Axitinib. A is a picture in which Axitinib is dissolved in water and trifluoroethanol; B is a picture in which gelatin and polycaprolactone are dissolved in trifluoroethanol with and without the addition of Axitinib to the electrospinning solution.
Stirring the solution to forms a milky solution. When it stays for a long period of time, granular precipitation may occur. […] 0.25 g of gelatin and 0.25 g of polycaprolactone were dissolved in 5 ml of trifluoroethanol containing 20 μl of acetic acid to form a transparent solution, and 50 mg of Axitinib was added to form a light yellow transparent solution (B).

- solubility in trifluoroethanol (TFE) (trifluoroethanol): quickly dissolved
- solubility in water (water): poorly soluble
SMILES: CNC(=O)c1ccccc1Sc1ccc2c(/C=C/c3ccccn3)n[nH]c2c1 [Axitinib]
